Results reported in patent US7767812B2, “Crystals of pyrimidine compound and process for producing the same” (Eisai R&D Management Co., Ltd., priority 2005, dated 2010).

Assay: Solubility in Disintegration Test 2nd fluid (Test Example 1)
Conditions: approx. 50 mg in 500 mL Disintegration Test 2nd fluid (Japanese pharmacopoeia, 14th Edition), paddles 50 rpm, concentration by HPLC over time (FIG. 17); compared with crystal form B
Protocol: First, 500 mL of the 2nd fluid was stirred at 50 rpm with paddles (Toyama Co., Ltd.; DISSOLUTION TESTER), then after the crystals and amorphous compound were added, the solution was sampled at each time period. The sampled solutions were filtered through a filter (0.2 μm), and the concentration of 5-[2-amino-4-(2-furyl)pyrimidin-5-yl]-1-methylpyridin-2(1H)-one in the solution was measured by HPLC method. The conditions for HPLC method are shown below.
Column: CAPCELL PAK C18 AQ, S-5 μm, 4.6 mm ID×250 mm length (Shiseido, Japan)
Column temperature: a constant temperature around 30° C.
Detection wavelength: 262 nm
Solution A: acetonitrile/water/1M ammonium acetate (10:1000:1, v/v/v)
Solution B: acetonitrile/water/1M ammonium acetate (900:100:1, v/v/v)

SMILES	solubility
Cn1cc(-c2cnc(N)nc2-c2ccco2)ccc1=O [crystal form C, 5-[2-amino-4-(2-furyl)pyrimidin-5-yl]-1-methylpyridin-2(1H)-one]	superior in solubility than the crystal form B
Cn1cc(-c2cnc(N)nc2-c2ccco2)ccc1=O.O [hydrate crystals, 5-[2-amino-4-(2-furyl)pyrimidin-5-yl]-1-methylpyridin-2(1H)-one hydrate]	superior in solubility than the crystal form B
